Measurements published in paper PMC9925730, “Controlled sequential in situ self-assembly and disassembly of a fluorogenic cisplatin prodrug for cancer theranostics” (Nature Communications, 2023).

What was measured:
[1] = system: s.c. HeLa tumors; assay: Chemotherapy of s.c. HeLa tumors in vivo; design: species or system mice; settings: for tumor volume growth on day 21: s.c. HeLa, 2.25 mg kg^−1 Pt i.v. on day 0, 3, 6, 9, 12
Procedure: Sixteen mice with s.c. […] Each experiment was conducted in four mice.

[2] = GSH-triggered reduction, disassembly of Pt^IVNPs and CDDP release in solution (HPLC, DLS, TEM, ICP-OES); design: amount of compound in the P-CyPt solution (HPLC, Fig. 2h) / mean size by TEM (Fig. 2i) / mean size by DLS (Fig. 2i): unit not given here; settings: for amount of compound in the P-CyPt solution (HPLC, Fig. 2h) / Pt release (ICP-OES, Fig. 2h) / mean size by DLS (Fig. 2i) / mean size by TEM (Fig. 2i): P-CyPt 10 μM
Procedure: To evaluate the ALP-triggered dephosphorylation and in situ self-assembly process, a solution of P-CyPt (10 μM) in Tris buffer (1 mL) was incubated with ALP (100 U/L) at 37 °C. HPLC, DLS, and TEM analyses were performed at 0, 5, 10, 15, 20, and 30 min. To evaluate the GSH-triggered reduction and disassembly process, P-CyPt (10 μM) in Tris buffer (1 mL) was first incubated with ALP (100 U/L) at 37 °C for 30 min to allow the formation of Pt^IVNPs. The solution was then treated with 10 mM GSH at 37 °C, which was monitored by HPLC, DLS, and TEM at 10, 20, 30, 40, 50, and 60 min.
(a) 5 mM GSH 10 mM GSH(b ) (c)
60 min 60 min CyPt Cy- CO O H
Time (min) Time (min) Time (min)
Supplementary Figure 9. HPLC traces of the time-dependent conversion of PtIVNPs (CyPt) into Cy-COOH under incubation with 5 mM (a) or 10 mM GSH (b) in Tris buffer. (c) The conversion curves of PtIVNPs (CyPt) into Cy-COOH under incubation with 5 mM (red) or 10 mM GSH (black) in Tris buffer. P-CyPt (10 μM) was incubated with ALP (100 U/L, 37 °C) in Tris buffer for 30 min to allow complete dephosphorylation and in situ self-assembly into PtIVNPs. Then, GSH at a concentration of 5 mM or 10 mM was added and incubated for another 0, 10, 20, 30, 40, 50, and 60 min. The amounts of CyPt and Cy-COOH at each time point were quantified by HPLC.
Date are mean ± s.d. (n = 3 independent experiments). […]
Release of CDDP from PtIVNPs during disassembly process. P-CyPt (10 μM) in 5 mL Tris buffer was incubated with ALP (100 U/L) at 37 °C for 30 min to form PtIVNPs, followed by addition with 10 mM GSH at 37 °C. After 10, 20, 30, 40, 50 and 60 min, 50 mM N-ethylmaleimide was added into the solution to scavenge GSH. The reaction solution was centrifuged at 13,000 × g and the supernatant was collected. The supernatants were digested with concentrated HNO3 (65~70%) and HCl (36~38%) at 90 °C for 24 h. The solution was diluted to 5 mL 2% HNO3 and 5% HCl solution, and the concentration of Pt element was measured by ICP-OES, which was further applied to calculate the amount of CDDP (denoted as NPt) released in the solution. The percentage of Pt release at each time point was calculated according to the formula:
Pt release % = NPt/N0 × 100% (9)
Where N0 represents the total amount of Pt in the in situ formed PtIVNPs, and NPt represents the amount of Pt released from PtIVNPs following incubation with GSH.
Characterization of enzyme kinetics of P-CyPt towards ALP. Briefly, varying concentrations of P-CyPt (0.5, 1.0, 2.0, 3.0, 4.0, and 5.0 μM) in 100 μL Tris buffer were placed in a 96-well black plate. The reactions were initiated upon addition of 100 μL ALP (30 U/L) to each solution. The resulting fluorescence intensities in each well in the first five minutes were recorded on a Spark™ 10M Multimode Microplate Reader (λex/em = 680/710 nm). The amount of CyPt at each time point was determined by a standard curve under the same conditions. Kinetics values, including Km and Vmax, were determined according to the Lineweaver-Burk plot.
Determination of the sensitivity of P-CyPt towards ALP. To evaluate the sensitivity of P-CyPt towards ALP, P-CyPt (10 μM) was incubated with varying concentrations of […]
30 min, and the fluorescence spectra were then recorded on a HORIBA Jobin Yvon Fluoromax-4 fluorometer, with an excitation at 680 nm. The resulting fluorescence intensities at 710 nm were plotted to the con centrations of ALP, and a linear regression fitted from 0 -20 U/L ALP was obtained, affording the slope k. The detection limit was calculated from 3σ/k, where σ represents the standard deviation of 11 blank […]
Determination of the specificity towards ALP. The specificity towards ALP in vitro was evaluated based on fluorescence, respectively. P-CyPt (10 μM) in Tris buffer was incubated with 10 nmol/L of MMP-2, 100 U/L of γ-glutamyl transferase (GGT), 100 U/L Cathepsin B (CTB), 0.2 μg/mL of Caspase-3/7, 2.5 mg/mL of Trypsin, 100 U/L of ALP or 100 U/L ALP pretreated with its inhibitors, Na 3VO4 (100 μM) for 10 min. The […]

[3] = ALP 30 min then GSH 10 mM 10 min (time 40)
[4] = ALP 30 min then GSH 10 mM 20 min (time 50)
[5] = ALP 30 min then GSH 10 mM 30 min (time 60)
[6] = ALP 30 min then GSH 10 mM 40 min (time 70)
[7] = ALP 30 min then GSH 10 mM 50 min (time 80)
[8] = ALP 30 min then GSH 10 mM 60 min (time 90)

## [NH2][Pt]([NH2])([Cl])[Cl] [CDDP, cisplatin]
[1]
  tumor volume growth on day 21: ~ 15.8 fold

## CC1(C)C(/C=C/C2=C3Oc4cc(O)c(Cl)cc4C=C3CCC2)=[N+](CCCNC(=O)[C@@H](Cc2ccccc2)NC(=O)[C@@H](Cc2ccccc2)NC(=O)CCC(=O)[O][Pt]([NH2])([NH2])([OH])([Cl])[Cl])c2ccccc21 [CyPt]
[2]; 5 or 10 mM GSH, after 60 min
  reduction of CyPt in Pt^IVNPs into Cy-COOH (HPLC): completely reduced into Cy-COOH
[2]; [3]
  amount of compound in the P-CyPt solution (HPLC, Fig. 2h): 82.67
[2]; [4]
  amount of compound in the P-CyPt solution (HPLC, Fig. 2h): 59.68
[2]; [5]
  amount of compound in the P-CyPt solution (HPLC, Fig. 2h): 38.50
[2]; [6]
  amount of compound in the P-CyPt solution (HPLC, Fig. 2h): 22.16
[2]; [7]
  amount of compound in the P-CyPt solution (HPLC, Fig. 2h): 9.16
[2]; [8]
  amount of compound in the P-CyPt solution (HPLC, Fig. 2h): 0.00

## CC1(C)C(/C=C/C2=C3Oc4cc(OP(=O)(O)O)c(Cl)cc4C=C3CCC2)=[N+](CCCNC(=O)[C@@H](Cc2ccccc2)NC(=O)[C@@H](Cc2ccccc2)NC(=O)CCC(=O)[O][Pt]([NH2])([NH2])([OH])([Cl])[Cl])c2ccccc21 [P-CyPt]
[1]; day 21
  average tumor weight at end of treatment: significantly smaller than the other three groups
[1]
  tumor volume growth on day 21: no apparent tumor growth
[2]; [3]
  Pt release (ICP-OES, Fig. 2h): 19.98%
  amount of compound in the P-CyPt solution (HPLC, Fig. 2h): 0
  mean size by DLS (Fig. 2i): 133.97
  mean size by TEM (Fig. 2i): 128.24
[2]; [4]
  Pt release (ICP-OES, Fig. 2h): 42.65%
  amount of compound in the P-CyPt solution (HPLC, Fig. 2h): 0
  mean size by DLS (Fig. 2i): 96.71
  mean size by TEM (Fig. 2i): 91.24
[2]; [5]
  Pt release (ICP-OES, Fig. 2h): 64.34%
  amount of compound in the P-CyPt solution (HPLC, Fig. 2h): 0
  mean size by DLS (Fig. 2i): 62.38
  mean size by TEM (Fig. 2i): 68.92
[2]; [6]
  Pt release (ICP-OES, Fig. 2h): 80.43%
  amount of compound in the P-CyPt solution (HPLC, Fig. 2h): 0
  mean size by DLS (Fig. 2i): 35.90
  mean size by TEM (Fig. 2i): 38.87
[2]; [7]
  Pt release (ICP-OES, Fig. 2h): 95.70%
  amount of compound in the P-CyPt solution (HPLC, Fig. 2h): 0
  mean size by DLS (Fig. 2i): 14.84
  mean size by TEM (Fig. 2i): 11.31
[2]; [8]
  Pt release (ICP-OES, Fig. 2h): 99.63%
  amount of compound in the P-CyPt solution (HPLC, Fig. 2h): 0
  mean size by DLS (Fig. 2i): 0.00
  mean size by TEM (Fig. 2i): 0.00
